Results: patent US11168073B2, “3,3-difluoroallylamines or salts thereof and pharmaceutical compositions comprising the same” (YUHAN CORPORATION, priority 2018, dated 2021)
Where a name gives a salt, the structure may show the parent alone.

Experiments:
Format in all cases: biochemical
[1] = molecular target: T1, recombinant human MAO-B (monoamine oxidase-B) (Homo sapiens, UniProt P27338); assay: Activity evaluation on recombinant human MAO-B (Amplex Red/HRP-coupled assay, 1 mM benzylamine substrate); conditions: 1 mM benzylamine substrate, read-out: Inhibitory Activity (IC50, nM) MAO-B
T1 construct: purchased Sigma-Aldrich
T1 sequence (P27338 1-520): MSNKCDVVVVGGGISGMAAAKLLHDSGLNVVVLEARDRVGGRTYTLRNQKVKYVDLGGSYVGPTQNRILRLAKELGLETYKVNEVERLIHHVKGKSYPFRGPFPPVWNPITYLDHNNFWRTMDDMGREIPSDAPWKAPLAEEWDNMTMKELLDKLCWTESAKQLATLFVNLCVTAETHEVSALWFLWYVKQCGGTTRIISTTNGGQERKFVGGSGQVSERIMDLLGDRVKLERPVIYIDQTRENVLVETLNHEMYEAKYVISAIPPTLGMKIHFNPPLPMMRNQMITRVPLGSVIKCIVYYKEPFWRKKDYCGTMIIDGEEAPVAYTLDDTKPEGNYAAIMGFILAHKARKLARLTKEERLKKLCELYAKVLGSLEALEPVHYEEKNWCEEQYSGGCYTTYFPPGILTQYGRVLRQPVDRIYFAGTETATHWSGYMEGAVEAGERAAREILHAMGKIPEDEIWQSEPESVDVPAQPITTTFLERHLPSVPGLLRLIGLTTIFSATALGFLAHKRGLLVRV
How it was run: (§1)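 Each oxidase is tested with its own substrate: MAO-A with 0.5 mM tyramine, MAO-B with 1 mM benzylamine, DAO with 1 mM putrescine. After 30 min enzyme-compound preincubation at 37 °C, Amplex Red (200 uM) plus HRP (1 U/mL) reports H2O2 as fluorescence; IC50 is fitted from eight-point curves.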

[2] = molecular target: T2, recombinant human MAO-A (monoamine oxidase-A) (Homo sapiens, UniProt P21397); assay: Activity evaluation on recombinant human MAO-A (Amplex Red/HRP-coupled assay, 0.5 mM tyramine substrate); conditions: 0.5 mM tyramine substrate, read-out: Inhibitory Activity (IC50, nM) MAO-A
T2 construct: purchased Sigma-Aldrich
T2 sequence (P21397 1-527): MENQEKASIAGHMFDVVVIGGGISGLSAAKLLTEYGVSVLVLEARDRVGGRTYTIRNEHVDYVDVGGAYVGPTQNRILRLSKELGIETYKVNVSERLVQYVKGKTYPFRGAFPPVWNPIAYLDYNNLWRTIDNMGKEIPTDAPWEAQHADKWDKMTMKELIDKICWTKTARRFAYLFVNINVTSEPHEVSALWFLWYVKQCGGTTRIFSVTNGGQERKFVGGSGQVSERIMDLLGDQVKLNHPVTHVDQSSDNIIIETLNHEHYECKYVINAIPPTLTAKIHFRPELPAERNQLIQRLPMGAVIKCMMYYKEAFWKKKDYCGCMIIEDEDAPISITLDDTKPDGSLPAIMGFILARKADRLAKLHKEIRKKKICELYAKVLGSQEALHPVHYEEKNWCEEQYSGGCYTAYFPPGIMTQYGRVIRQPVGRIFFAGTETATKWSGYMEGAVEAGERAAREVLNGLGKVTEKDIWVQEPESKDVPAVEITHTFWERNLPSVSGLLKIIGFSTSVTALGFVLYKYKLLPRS
How it was run: as §1

[3] = molecular target: T3, recombinant human DAO (diamine oxidase) (Homo sapiens, UniProt P19801); assay: Activity evaluation on recombinant human DAO (Amplex Red/HRP-coupled assay, 1 mM putrescine substrate); conditions: 1 mM putrescine substrate, read-out: Inhibitory Activity (IC50, nM) DAO
T3 construct: purchased R&D systems
T3 sequence (P19801 20-751): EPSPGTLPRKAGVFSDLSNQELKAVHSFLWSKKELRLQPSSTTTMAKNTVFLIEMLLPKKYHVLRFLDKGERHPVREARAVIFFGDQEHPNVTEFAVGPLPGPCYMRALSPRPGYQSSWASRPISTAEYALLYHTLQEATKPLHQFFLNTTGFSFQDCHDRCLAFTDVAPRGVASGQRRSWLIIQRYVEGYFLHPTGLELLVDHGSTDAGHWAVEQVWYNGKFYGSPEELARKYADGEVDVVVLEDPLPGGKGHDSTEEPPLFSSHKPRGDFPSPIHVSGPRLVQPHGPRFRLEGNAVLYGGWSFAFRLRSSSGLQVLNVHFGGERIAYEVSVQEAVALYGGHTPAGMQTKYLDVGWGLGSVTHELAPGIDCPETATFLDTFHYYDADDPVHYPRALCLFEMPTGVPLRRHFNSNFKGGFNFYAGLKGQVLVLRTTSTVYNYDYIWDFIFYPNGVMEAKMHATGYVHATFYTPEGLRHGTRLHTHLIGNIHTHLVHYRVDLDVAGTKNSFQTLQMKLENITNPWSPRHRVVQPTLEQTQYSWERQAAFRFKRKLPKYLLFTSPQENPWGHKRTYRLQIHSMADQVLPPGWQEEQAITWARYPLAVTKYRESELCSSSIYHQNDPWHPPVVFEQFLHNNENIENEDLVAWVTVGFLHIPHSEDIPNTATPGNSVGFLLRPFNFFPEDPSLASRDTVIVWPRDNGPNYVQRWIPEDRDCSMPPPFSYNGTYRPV
How it was run: as §1

recombinant human VAP-1 = molecular target: T4, recombinant human VAP-1 (Homo sapiens, UniProt Q16853); assay: Activity evaluation on recombinant human VAP-1 (Amplex Red/HRP-coupled hydrogen peroxide assay, benzylamine substrate); conditions: recombinant human VAP-1, benzylamine substrate; read-out: Inhibitory Activity (IC50, nM) human VAP-1
T4 construct: purchased R&D systems
T4 sequence (Q16853 1-763): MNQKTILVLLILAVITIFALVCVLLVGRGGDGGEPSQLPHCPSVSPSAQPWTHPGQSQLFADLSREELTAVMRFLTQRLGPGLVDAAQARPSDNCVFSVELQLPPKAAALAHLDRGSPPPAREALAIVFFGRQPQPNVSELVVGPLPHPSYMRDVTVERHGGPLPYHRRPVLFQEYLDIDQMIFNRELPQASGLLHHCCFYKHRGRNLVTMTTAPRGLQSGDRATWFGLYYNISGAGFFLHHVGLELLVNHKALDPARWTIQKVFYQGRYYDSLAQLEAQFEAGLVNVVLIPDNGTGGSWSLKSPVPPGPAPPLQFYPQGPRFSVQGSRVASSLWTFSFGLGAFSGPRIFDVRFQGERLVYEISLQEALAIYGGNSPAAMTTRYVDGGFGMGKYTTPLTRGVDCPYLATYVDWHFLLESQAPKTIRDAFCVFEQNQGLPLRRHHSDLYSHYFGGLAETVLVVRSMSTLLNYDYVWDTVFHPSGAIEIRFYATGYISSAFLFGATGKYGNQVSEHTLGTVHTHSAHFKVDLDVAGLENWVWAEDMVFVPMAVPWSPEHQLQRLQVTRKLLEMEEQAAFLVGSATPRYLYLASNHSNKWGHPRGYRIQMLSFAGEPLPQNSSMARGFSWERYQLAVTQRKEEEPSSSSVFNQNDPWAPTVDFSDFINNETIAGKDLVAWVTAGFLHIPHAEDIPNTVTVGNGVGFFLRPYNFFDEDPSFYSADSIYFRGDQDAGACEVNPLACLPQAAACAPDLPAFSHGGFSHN
How it was run: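 Hydrogen peroxide from benzylamine (1 mM) oxidation by human recombinant VAP-1 detected via HRP-coupled Amplex Red (200 uM) fluorescence, kinetic over 1–2 h. Enzyme and compound preincubated 30 min at 37 °C, pH 7.4 phosphate; 8-point dose response, signal-rate decrease versus DMSO control fitted to four-parameter logistic for IC50.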

SMILES	IC50 [1]	IC50 [2]	IC50 [3]	IC50 (recombinant human VAP-1)
Cc1cc(-c2ccc3sc(Cn4cnn(CC(CN)=C(F)F)c4=O)cc3c2)cc2c1NC(=O)CC2 [Example 210, 6-[2-[[1-[2-(aminomethyl)-3,3-difluoro-allyl]-5-oxo-1,2,4-triazol-4-yl]methyl]benzothiophen-5-yl]-8-methyl-3,4-dihydro-1H-quinolin-2-one Trifluoroacetate]	> 100000 nM	> 100000 nM	1230 nM	1.5 nM
CN1C(=O)CCc2cc(-c3ccc4sc(Cn5cnn(CC(CN)=C(F)F)c5=O)cc4c3)ccc21 [Example 211, 6-[2-[[1-[2-(aminomethyl)-3,3-difluoro-allyl]-5-oxo-1,2,4-triazol-4-yl]methyl]benzothiophen-5-yl]-1-methyl-3,4-dihydroquinolin-2-one Trifluoroacetate]	42700 nM	38900 nM	1860 nM	1.1 nM
CCn1cc(-c2ccc3sc(Cn4cnn(CC(CN)=C(F)F)c4=O)cc3c2)cn1 [Example 212, 2-[2-(aminomethyl)-3,3-difluoro-allyl]-4-[[5-(1-ethylpyrazol-4-yl)benzothiophen-2-yl]methyl]-1,2,4-triazol-3-one Trifluoroacetate]	> 100000 nM	79100 nM	4320 nM	1.5 nM
NCC(Cn1ncn(-c2cccc(-c3ccc(N4CCNCC4)nc3)n2)c1=O)=C(F)F [Example 213, 2-[2-(aminomethyl)-3,3-difluoro-allyl]-4-[6-(6-piperazin-1-yl-3-pyridyl)-2-pyridyl]-1,2,4-triazol-3-one Ditrifluoroacetate]	> 100000 nM	> 100000 nM	1300 nM	2.5 nM
NCC(Cn1ncn(-c2cccc(-c3ccc(C(=O)N4CCOCC4)cc3)n2)c1=O)=C(F)F [Example 214, 2-[2-(aminomethyl)-3,3-difluoro-allyl]-4-[6-[4-(morpholine-4-carbonyl)phenyl]-2-pyridyl]-1,2,4-triazol-3-one Trifluoroacetate]	> 100000 nM	> 100000 nM	940 nM	1.7 nM
NCC(Cn1ncn(-c2cccc(-c3ccc(N4CCOCC4)nc3)n2)c1=O)=C(F)F [Example 215, 2-[2-(aminomethyl)-3,3-difluoro-allyl]-4-[6-(6-morpholino-3-pyridyl)-2-pyridyl]-1,2,4-triazol-3-one Trifluoroacetate]	> 100000 nM	> 100000 nM	280 nM	0.7 nM
NCC(Cn1ncn(-c2cccc(-c3cccc(N4CCNCC4)c3)n2)c1=O)=C(F)F [Example 216, 2-[2-(aminomethyl)-3,3-difluoro-allyl]-4-[6-(3-piperazin-1-ylphenyl)-2-pyridyl]-1,2,4-triazol-3-one Ditrifluoroacetate]	> 100000 nM	> 100000 nM	63 nM	1.3 nM
CN(C)c1cc(-c2cccc(-n3cnn(CC(CN)=C(F)F)c3=O)n2)ccc1F [Example 217, 2-[2-(aminomethyl)-3,3-difluoro-allyl]-4-[6-[3-(dimethylamino)-4-fluoro-phenyl]-2-pyridyl]-1,2,4-triazol-3-one Trifluoroacetate]	13700 nM	> 100000 nM	1500 nM	1.1 nM

Continued, values first:

IC50 [1]	IC50 [2]	IC50 [3]	IC50 (recombinant human VAP-1)	SMILES
> 100000 nM	> 100000 nM	130 nM	0.8 nM	CCn1cc(-c2cccc(-n3cnn(CC(CN)=C(F)F)c3=O)n2)ccc1=O [Example 218, 5-[6-[1-[2-(aminomethyl)-3,3-difluoro-allyl]-5-oxo-1,2,4-triazol-4-yl]-2-pyridyl]-1-ethyl-pyridin-2-one Trifluoroacetate]
68500 nM	> 100000 nM	47 nM	0.2 nM	NCC(Cn1ncn(-c2cccc(-c3ccc4c(c3)NC(=O)OC4)n2)c1=O)=C(F)F [Example 219, 7-[6-[1-[2-(aminomethyl)-3,3-difluoro-allyl]-5-oxo-1,2,4-triazol-4-yl]-2-pyridyl]-1,4-dihydro-3,1-benzoxazin-2-one Trifluoroacetate]
> 100000 nM	> 100000 nM	11000 nM	1.1 nM	Cc1cc(-c2ccc(N3CCNCC3)nc2)cnc1-n1cnn(CC(CN)=C(F)F)c1=O [Example 220, 2-[2-(aminomethyl)-3,3-difluoro-allyl]-4-[3-methyl-5-(6-piperazin-1-yl-3-pyridyl)-2-pyridyl]-1,2,4-triazol-3-one Ditrifluoroacetate]
9000 nM	20000 nM	2700 nM	0.3 nM	Cc1cc(-c2ccc3c(c2)NC(=O)CO3)cnc1-n1cnn(CC(CN)=C(F)F)c1=O [Example 221, 6-[6-[1-[2-(aminomethyl)-3,3-difluoro-allyl]-5-oxo-1,2,4-triazol-4-yl]-5-methyl-3-pyridyl]-4H-1,4-benzoxazin-3-one Trifluoroacetate]
> 100000 nM	> 100000 nM	4000 nM	1 nM	COCCNc1ncc(-c2cnc(-n3cnn(CC(CN)=C(F)F)c3=O)c(C)c2)cn1 [Example 222, 2-[2-(aminomethyl)-3,3-difluoro-allyl]-4-[5-[2-(2-methoxyethylamino)pyrimidin-5-yl]-3-methyl-2-pyridyl]-1,2,4-triazol-3-one Trifluoroacetate]
